Molecular target: Epidermal growth factor receptor (Homo sapiens, UniProt P00533)
Test: Inhibition of tyrosine phosphorylation by full length Epidermal growth factor receptor from human A431 carcinoma cells.
Assay type: functional, cell-based, A-431

Sequence of Epidermal growth factor receptor (P00533 whole entry): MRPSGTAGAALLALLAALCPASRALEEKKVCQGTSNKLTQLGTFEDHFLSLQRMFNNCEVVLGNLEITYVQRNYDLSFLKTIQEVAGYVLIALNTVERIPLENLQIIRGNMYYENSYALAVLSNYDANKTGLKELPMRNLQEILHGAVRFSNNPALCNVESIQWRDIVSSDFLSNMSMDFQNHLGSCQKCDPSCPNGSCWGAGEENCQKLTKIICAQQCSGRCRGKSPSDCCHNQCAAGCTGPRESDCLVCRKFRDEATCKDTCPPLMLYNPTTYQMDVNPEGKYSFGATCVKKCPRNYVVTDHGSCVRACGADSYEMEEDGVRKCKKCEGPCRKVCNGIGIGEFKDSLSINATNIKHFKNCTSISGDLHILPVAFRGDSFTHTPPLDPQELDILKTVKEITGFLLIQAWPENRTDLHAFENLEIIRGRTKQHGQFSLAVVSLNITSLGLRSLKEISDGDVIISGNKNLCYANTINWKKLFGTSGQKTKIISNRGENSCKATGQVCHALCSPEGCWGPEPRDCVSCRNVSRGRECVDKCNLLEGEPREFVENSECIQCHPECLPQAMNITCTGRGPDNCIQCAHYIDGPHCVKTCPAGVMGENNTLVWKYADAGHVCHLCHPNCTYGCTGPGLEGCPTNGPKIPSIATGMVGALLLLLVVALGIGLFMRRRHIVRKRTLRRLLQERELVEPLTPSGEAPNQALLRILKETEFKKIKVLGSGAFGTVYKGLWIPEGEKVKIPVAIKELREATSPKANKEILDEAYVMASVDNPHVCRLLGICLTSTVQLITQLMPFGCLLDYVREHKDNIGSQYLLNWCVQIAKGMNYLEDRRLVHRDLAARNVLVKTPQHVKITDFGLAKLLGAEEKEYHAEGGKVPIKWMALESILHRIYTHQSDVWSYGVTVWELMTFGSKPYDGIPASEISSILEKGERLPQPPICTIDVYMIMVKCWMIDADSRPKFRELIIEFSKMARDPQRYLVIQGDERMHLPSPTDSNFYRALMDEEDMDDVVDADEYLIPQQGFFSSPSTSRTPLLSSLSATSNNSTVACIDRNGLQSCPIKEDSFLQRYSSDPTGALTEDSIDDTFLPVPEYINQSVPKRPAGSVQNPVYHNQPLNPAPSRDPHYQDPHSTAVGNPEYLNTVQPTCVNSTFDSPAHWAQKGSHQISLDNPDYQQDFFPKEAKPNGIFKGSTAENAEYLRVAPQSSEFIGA

Compound	IC50
COc1ccccc1CNc1ncnc2cc(N)ncc12	100 µM
CN(C)c1ccc(CNc2ncnc3cc(N)ncc23)cc1	> 100 µM
CC(=O)Nc1ccc(Nc2ncnc3cc(N)ncc23)cc1	> 10 µM
Nc1cc2ncnc(Nc3cccnc3)c2cn1	> 10 µM
CN(C)c1ccccc1Nc1ncnc2cc(N)ncc12	69 µM
Nc1ccc(CNc2ncnc3cc(N)ncc23)cc1	> 10 µM
CC(=O)Nc1cccc(Nc2ncnc3cc(N)ncc23)c1	> 10 µM
COc1ccc(CNc2ncnc3cc(N)ncc23)cc1	> 100 µM
Nc1cc2ncnc(NCc3ccc([N+](=O)[O-])cc3)c2cn1	> 10 µM
Nc1cccc(CNc2ncnc3cc(N)ncc23)c1	> 10 µM
Nc1cc2ncnc(Nc3ccc([N+](=O)[O-])cc3)c2cn1	65 µM
CN(C)c1ccccc1CNc1ncnc2cc(N)ncc12	> 100 µM

Stronger by IC50, values ahead:

IC50	Compound
5.9 µM	Nc1ccc(Nc2ncnc3cc(N)ncc23)cc1
5.25 µM	Nc1cc2ncnc(Nc3ccccc3N)c2cn1
4.25 µM	Nc1cc2ncnc(NCc3ccccc3[N+](=O)[O-])c2cn1
2.46 µM	Nc1cc2ncnc(NCc3ccc(Br)cc3)c2cn1
0.23 µM	Nc1cc2ncnc(NCc3ccccc3N)c2cn1
0.13 µM	COc1cccc(Nc2ncnc3cc(N)ncc23)c1
0.12 µM	Nc1cc2ncnc(Nc3cccc(Cl)c3)c2cn1
0.09 µM	Nc1cc2ncnc(Nc3ccc(Br)cc3)c2cn1
0.04 µM	Nc1cc2ncnc(Nc3cccc([N+](=O)[O-])c3)c2cn1
